In patent US8436039B2, “Inhibitors of the ATB(0,+) transporter and uses thereof” (Georgia Health Sciences University Research Institute, Inc., priority 2008, dated 2013):

How the values were obtained:
[1] = test system: MCF7, T-47D and ZR-75.1 cells; assay: Colony formation assay, malignant ATB^0,+-positive mammary epithelial cell lines; type: cell-based; settings: Homo sapiens, 288 h, 2.5 mM, 12 days, regular culture medium
Protocol: (§1) The colony formation assay was performed as described previously (Thangaraju et al., 2006, Cancer Res. 66, 11560-11564). Mammary epithelial cells were seeded on to 6-well plates (10000 cells per well) in DMEM. After 24 hours, cells were exposed to varying concentrations of α-methyl-DL-tryptophan or 1-methyl-DL-tryptophan for 2 weeks, changing medium every 2 days. Cells were washed with PBS and fixed in 100% (v/v) methanol for 30 min followed by staining with KaryoMAX Giemsa stain for one hour. The wells were washed with water and dried overnight at room temperature. Finally, the dye in the wells was dissolved with 1% SDS in 0.2 M NaOH for one hour, and the attenuance of the released dye was measured at 630 nm.
(§2) The present studies have identified α-methyl-DL-tryptophan as a blocker of ATB^0,+ and also have shown that the compound is able to block the transport of amino acids via ATB^0,+ under conditions that stimulate those in vivo in terms of amino acid concentrations. […] For this, we treated the human mammary epithelial cell lines with 2.5 mM α-methyl-DL-tryptophan in the presence of regular culture medium for 12 days in clonogenic assay and quantified the colony formation for each cell line in the presence and absence of α-methyl-DL-tryptophan (FIG. 8). […]

MCF7 cells [2] = assay: Colony formation assay, dose-response in MCF7 cells; type: cell-based; settings: Homo sapiens, same assay conditions, read-out: IC50 for inhibition of colony formation
Protocol: as §1, §2

[3] = test system: HMEC, HBL100 and MCF10A cells; assay: Colony formation assay, non-malignant ATB^0,+-negative mammary epithelial cell lines; type: cell-based, human; settings: 2.5 mM, 12 days
Protocol: as §1, §2

MCF7 cells [4] = assay: Cell cycle analysis (FACS, propidium iodide) in MCF7 cells; type: cell-based, human; settings: 2.5 mM; 24 hours
Protocol: MCF10A (an ATB^0,+-negative non-malignant cell line), MCF7 (an ATB^0,+-positive malignant cell line) and MDA-MB453 (an ATB^0,+-negative malignant cell line) cells were cultured in 6-well plates in a regular culture medium in the presence or absence of α-methyl-DL-tryptophan (2.5 mM) for 24, 48 and 72 hours. Cells were fixed in 50% (v/v) ethanol, treated with 0.1% sodium citrate, 1 mg/ml RNase A and 50 μg/ml propidium iodide, and subjected to FACS (Becton Dickinson FACSCalibur™) analysis. The amount of DNA in these cells, detected as chromosome content by propidium iodide binding, was used to identify cells in various stages of cell cycle: G1/G0, 2N; S, 2-4 N; G2/M, 4N (where N is the normal chromosome content).
Since treatment with α-methyl-DL-tryptophan suppressed colony formation in malignant cell lines in an ATB^0,+-dependent manner, we investigated the influence of this treatment on cell cycle to determine which stage of the cycle is affected. We used three different cell lines in this experiment: MCF10A (non-malignant and ATB^0,+-negative), MCF7 (malignant and ATB^0,+-positive) and MDA-MB453 (malignant and ATB^0,+-negative) (FIG. 9). […] In contrast, the treatment affected the cell cycle progression in the ATB^0,+-positive MCF7 cell line. The cells were arrested at G1/G0 stage to a significant extent when treated with α-methyl-DL-tryptophan. […]

[5] = mice; 2 mg/ml in drinking water; cited from earlier work

| Compound | inhibition at 2500 µM [1] [%] | IC50 (MCF7 cells [2]) [µM] | effect on ability to form colonies [3] | percentage of MCF7 cells in G1/G0-phase (MCF7 cells [4]) [percentage] | percentage of MCF7 cells in S-phase (MCF7 cells [4]) [percentage] | plasma levels [5] [µM] |
| --- | --- | --- | --- | --- | --- | --- |
| CC(N)(Cc1c[nH]c2ccccc12)C(=O)O (racemic) [α-methyl-DL-tryptophan] | 60 to 75 | 160 ± 15 | no effect | 82±1 | 3±1 | – |
| Cn1cc(C[C@@H](N)C(=O)O)c2ccccc21 [1-methyl-D-tryptophan] | – | – | – | – | – | 35 to 40 |
